Experiments:
Format in all cases: cell-based, human
HSPCs = experiment: DL4 coating concentration titration, 14-day culture, with or without TNFα; details: lowest DL4 concentration tested; 14 days; with VCAM-1
Description: Tissue culture 96-well plates were coated with DL4-Fc and VCAM-1-Fc (R&D Systems) overnight at 4° C. or for 3-4 hours at room temperature. To coat, DL4 and VCAM-1 were diluted to 15 μg/ml and 2.5 μg/ml, respectively, in 50 μl of phosphate-buffered saline (PBS), resulting in a coating concentration of approximately 24 ng/mm2 of DL4-Fc and 4 ng/mm2 of VCAM-1-Fc. For titration experiments, the concentration of DL4 or VCAM-1 was adjusted accordingly while maintaining a 50 μl volume of PBS. Experiments using 384-well plates scaled were coated similarly but with 16 μl of PBS. Wells were washed once with PBS prior to seeding cells to remove unbound DL4-Fc protein that inhibits Notch signaling.^6
In parallel with the Notch pathway inhibition experiment described above, HSPCs were also seeded on DL4+VCAM-1 for 14 days with decreasing concentrations of DL4 (FIG. 4d). […] Representative flow cytometry plots showing differential proT cell induction with decreasing DL4 concentration in the presence or absence of TNFα are shown in FIG. 4f.

CD34+ HSPCs [1] = experiment: Definitive screening design cytokine screen for proT cell differentiation and expansion
Description: For experiments 7 days or longer, HSPCs were seeded at 63-125 cells/mm^2 (equivalent to 2000-4000 cells/well of a 96-well plate) on DL4+VCAM-1-coated surfaces. Experiments shorter than 7 days (CFSE and qPCR) were seeded at 470-780 cells/mm^2 (equivalent to 15,000-25,000 cells/well of a 96-well plate) to provide enough cells for analysis. Cells were cultured in 100 μl/well (32 μl/well for 384-well plate) of Iscove's Modified Eagle Medium (IMDM) supplemented with 20% bovine serum albumin, insulin, and transferrin (BIT 9500) serum substitute (Stemcell Technologies), 1 μg/ml low-density lipoprotein (LDL; Stemcell Technologies), 60 μM ascorbic acid (Sigma), 24 μM 2-mercaptoethanol (Sigma), and 1% penicillin-streptomycin (P/S; Invitrogen). The cytokines used in control condition were SCF, FLT3L, TPO, and IL-7 (also known as the “4F cytokines”, all of which were obtained from R&D Systems), each at a concentration of 20 ng/ml or 100 ng/ml as indicated in the text. All other cytokines were purchased from R&D Systems and used in the combinations and concentrations indicated in the text. For certain experiments, the γ-secretase inhibitor (2S)-N-[(3,5-Difluorophenyl)acetyl]-L-alanyl-2-phenyl] glycine 1,1-dimethylethyl ester (DAPT) or dimethyl sulfoxide (DMSO) was added to media at the concentrations indicated in the text.
For screening experiments, a Definitive Screening Design (DSD)^7 was employed where each factor was tested at three levels (scaled to [−1,0,1]). The design included at least 2m+1 runs, where m is the number of factors, comprised of m fold-over pairs plus a center run (with all factors at level 0) and with orthogonal blocking of UCB donors.^8
Absolute cell numbers were acquired for each cell population of interest and, for initial experiments, a z-score was calculated relative to the control condition:
where SE(⋅) is the standard error. Control conditions were the cytokines used previously in the DL4+VCAM-1 assay as in Shukla et al.^6 Stepwise regression using the minimum Bayesian information criterion method was used to determine significant terms and, from this, a linear regression model of z-scores was constructed that included main and quadratic effects and two-factor interactions. This provided a better- or worse-than estimate for each factor compared to the control. The DSD layout and regression model were constructed using JMP 13 software (SAS). Follow up experiments measuring the dose response of top factors, the regression model was fit to the absolute cell count. Values were square root or log-transformed as necessary to ensure that residuals were approximately normal before fitting the regression model.
Test conditions were arranged using serial dilutions of each cytokine and laid out using an Eppendorf epMotion 5070 liquid handler in 384-well plates previously coated with DL4 and VCAM-1.
To identify factors that enhance proT cell differentiation and expansion, a two-part screen was conducted from day 0-7 and day 7-14 to separate the effects of screened molecules on HSPCs and differentiating proT cells (FIG. 1a). Screened molecules were tested at three doses each in combination using a definitive screening design (DSD) experiment and a linear regression model was fit to empirical data to estimate dose response.^7 The response to factors was measured against a control condition that contained SCF, FLT3L, TPO and IL-7 cytokines as in Shukla et al.^6 but using a lower concentration of 20 ng/ml each.
Medium gray indicates the effect of the control condition; dark gray to black indicates an effect greater than the control condition; and light gray to white indicates an effect lesser than the control condition. The size of each circle indicates the significance of the effect in the linear regression model. Combinations of factors indicate two-factor interactions (e.g., TPO*IL-1β) or quadratic effects (e.g., IL-21*IL-21) in the regression model. […] IL-3 and TNFα were selected for further investigation. […]

CD34+ HSPCs [2] = experiment: γ-secretase inhibitor (GSI) titration, 14-day culture on DL4+VCAM-1; details: increasing concentrations of GSI; 14 days
Description: For experiments 7 days or longer, HSPCs were seeded at 63-125 cells/mm^2 (equivalent to 2000-4000 cells/well of a 96-well plate) on DL4+VCAM-1-coated surfaces. Experiments shorter than 7 days (CFSE and qPCR) were seeded at 470-780 cells/mm^2 (equivalent to 15,000-25,000 cells/well of a 96-well plate) to provide enough cells for analysis. Cells were cultured in 100 μl/well (32 μl/well for 384-well plate) of Iscove's Modified Eagle Medium (IMDM) supplemented with 20% bovine serum albumin, insulin, and transferrin (BIT 9500) serum substitute (Stemcell Technologies), 1 μg/ml low-density lipoprotein (LDL; Stemcell Technologies), 60 μM ascorbic acid (Sigma), 24 μM 2-mercaptoethanol (Sigma), and 1% penicillin-streptomycin (P/S; Invitrogen). The cytokines used in control condition were SCF, FLT3L, TPO, and IL-7 (also known as the “4F cytokines”, all of which were obtained from R&D Systems), each at a concentration of 20 ng/ml or 100 ng/ml as indicated in the text. All other cytokines were purchased from R&D Systems and used in the combinations and concentrations indicated in the text. For certain experiments, the γ-secretase inhibitor (2S)-N-[(3,5-Difluorophenyl)acetyl]-L-alanyl-2-phenyl] glycine 1,1-dimethylethyl ester (DAPT) or dimethyl sulfoxide (DMSO) was added to media at the concentrations indicated in the text. […]

In the case of TNFα, the “DL4 coating concentration down to which CD7+CD5+ proT cell development is maintained” value (HSPCs) is reported as no more than 2 ng/mm^2, the “effect on total live cells, CD7+ lymphocytes and CD7+CD5+ cells relative to the control condition” value (CD34+ HSPCs [1]; day 0-7 and day 7-14, control SCF, FLT3L, TPO, IL-7 at 20 ng/ml each, linear regression model) is reported as “string positive effects” and the “dose response of live cells, CD7+ lymphocytes and CD7+CD5+ proT cells” value (CD34+ HSPCs [1]; range of concentrations, n=2 UCB donors) is reported as “curved response in at least one population”. For the same substance, the “CD7+CD5+ proT cell generation under Notch inhibition” value (CD34+ HSPCs [2]) was “capable of maintaining CD7+CD5+ proT cell generation with a higher concentration of GSI than the control condition”.

— US20220403326A1, “MEDIA FORMULATIONS AND METHODS FOR PRODUCING PROGENITOR T CELLS” (priority 2019, published 2022)
